The values below come from article doi:10.1101/2025.10.30.685166v1 (biorxiv, 2025).

Assay [1] addresses T1, Hco-UNC-49B/Hco-UNC-49C heteromeric channel (Haemonchus contortus, UniProt D6BJF3+D6BK80).
T1 sequence (D6BK80 22-496): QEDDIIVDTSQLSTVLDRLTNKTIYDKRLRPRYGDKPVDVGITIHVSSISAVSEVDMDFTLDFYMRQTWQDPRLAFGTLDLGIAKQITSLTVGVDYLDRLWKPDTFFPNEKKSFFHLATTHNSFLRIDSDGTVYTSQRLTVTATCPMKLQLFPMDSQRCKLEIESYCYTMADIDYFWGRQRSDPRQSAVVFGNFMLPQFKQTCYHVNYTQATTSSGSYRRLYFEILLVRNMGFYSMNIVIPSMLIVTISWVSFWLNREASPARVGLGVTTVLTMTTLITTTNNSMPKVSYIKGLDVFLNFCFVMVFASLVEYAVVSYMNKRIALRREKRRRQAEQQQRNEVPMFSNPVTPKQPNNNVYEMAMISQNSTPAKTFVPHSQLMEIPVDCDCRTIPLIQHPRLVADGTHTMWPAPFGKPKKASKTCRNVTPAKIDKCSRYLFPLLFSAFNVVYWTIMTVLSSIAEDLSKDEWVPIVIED
T1 sequence (D6BJF3 22-440): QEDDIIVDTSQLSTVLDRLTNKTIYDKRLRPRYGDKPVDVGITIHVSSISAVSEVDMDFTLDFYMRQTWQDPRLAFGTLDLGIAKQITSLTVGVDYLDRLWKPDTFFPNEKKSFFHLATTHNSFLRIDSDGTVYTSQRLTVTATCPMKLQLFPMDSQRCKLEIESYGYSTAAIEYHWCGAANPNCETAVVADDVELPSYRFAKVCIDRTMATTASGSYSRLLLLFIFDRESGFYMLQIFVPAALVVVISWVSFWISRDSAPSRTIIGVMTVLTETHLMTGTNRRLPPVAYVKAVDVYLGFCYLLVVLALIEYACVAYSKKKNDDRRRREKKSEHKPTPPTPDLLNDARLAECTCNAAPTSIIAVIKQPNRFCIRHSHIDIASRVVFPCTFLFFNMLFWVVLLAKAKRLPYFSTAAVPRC
In words: cell-based.

Assay [2] addresses T2, Hco-UNC-49B homomeric channel (Haemonchus contortus, UniProt D6BK80).
T2 sequence (D6BK80 22-496): T1 sequence (D6BK80 22-496)
As to the kind of experiment: cell-based.

One may read the EC50 as the concentration needed to bring the measured effect to its halfway point. Low values mean a more potent agent, high ones a less potent agent. As to `NCCCC(=O)O` [GABA], the EC50 in assay [1] was determined as 84.9 ± 4 µM; in assay [2], 137 ± 7 µM.
